Laboratory results reported in patent publication US20020098211A1, “ANTIMICROBIAL AGENT AND USES THEREOF, IN PARTICULAR IN COSMETICS AND DERMATOLOGY” (priority 1998, published 2002).

Tested on: Enterococcus faecalis (American Type Culture Collection No. 33186)
Assay: Antimicrobial (preservation) challenge test, count of surviving microorganisms in the inoculated product
Experimental: Bacterium: Enterococcus faecalis (American Type Culture Collection No. 33186), cultured on soybean Trypticase Yeast: Candida albicans (American Type Culture Collection No. 10231), cultured on Sabouraud.
Inoculum preparation: tryptone-salt diluent
Counting: Eugon LT100 agar broth
On the evening before the test, each microbial strain is plated out on the appropriate agar medium and incubated in an oven at 35° C.
On the day of the test, 20 grams of the product are weighed out in a sterile pill box. Inoculation is carried out at a concentration of 1% using a microbial suspension with a titre of 108 microorganisms per ml: a concentration of 106 is obtained in the product. The contaminated sample is incubated in an oven at 22° C.
After incubation for 7 days, 1 gram of product is taken and tenfold dilutions are carried out in Eugon LT100 broth, and these dilutions are plated out on the surface of Petri dishes containing Eugon LT100 agar. The dishes are incubated at 35° C.
The colonies are counted on the dishes containing more than 20 and less than 200 colonies.

| Structure (SMILES) | number of microorganisms per gram of preparation, remaining in the product after 7 days of contact (Table 5, single agent at 3%) | other results |
| --- | --- | --- |
| CC(O)CCO (stereo not shown) [Butanediol, butanediol] | 4.0 × 10^5 microorganisms per gram of preparation | – |
| CCCCCCC(O)CO (stereo not shown) [Octanediol, 1,2-octanediol] | – | number of microorganisms per gram of preparation, remaining in the product after 7 days of contact (Table 5, single agent at 0.25%): 3.7 × 10^5 microorganisms per gram of preparation |
| CCCCCCCC(=O)OC(C)C(=O)OC(C)C(=O)[O-].[Na+] (stereo not shown) [Sodium capryl lactyl lactylate, sodium capryl lactyl lactylate] | – | number of microorganisms per gram of preparation, remaining in the product after 7 days of contact (Table 5, single agent at 1%): 1.5 × 10^4 microorganisms per gram of preparation |
| CCCC(O)CO (stereo not shown) [pentanediol, 1,2-pentanediol] | 2.3 × 10^5 microorganisms per gram of preparation | – |
